# Assay results published in ChEMBL document CHEMBL1671662, “In vitro activities of telavancin and six comparator agents against anaerobic bacterial isolates” (2009).
# Legend:
# [1] = test system: Clostridium tertium; assay: Antibacterial activity against Clostridium tertium by CLSI M11-A6 agar dilution method; type: functional
# [2] = test system: Prevotella buccae; assay: Antibacterial activity against Prevotella buccae by CLSI M11-A6 agar dilution method; type: functional; settings: Segatella buccae
# [3] = test system: Anaerococcus tetradius; assay: Antibacterial activity against Anaerococcus tetradius by CLSI M11-A6 agar dilution method; type: functional
# [4] = test system: Thomasclavelia ramosa; assay: Antibacterial activity against Clostridium ramosum by CLSI M11-A6 agar dilution method; type: functional
# [5] = test system: Ruminococcus albus; assay: Antibacterial activity against Ruminococcus albus by CLSI M11-A6 agar dilution method; type: functional; settings: Hominimerdicola alba
# [6] = test system: Paraclostridium bifermentans; assay: Antibacterial activity against Clostridium bifermentans by CLSI M11-A6 agar dilution method; type: functional
# [7] = test system: Phocaeicola vulgatus; assay: Antibacterial activity against Bacteroides vulgatus by CLSI M11-A6 agar dilution method; type: functional
# [8] = test system: Bifidobacterium breve; assay: Antibacterial activity against Bifidobacterium breve by CLSI M11-A6 agar dilution method; type: functional
# [9] = test system: Clostridium sporogenes; assay: Antibacterial activity against Clostridium sporogenes by CLSI M11-A6 agar dilution method; type: functional
# [10] = test system: Ruminococcus torques; assay: Antibacterial activity against Ruminococcus torques by CLSI M11-A6 agar dilution method; type: functional; settings: Mediterraneibacter torques
# [11] = test system: Ruminococcus flavefaciens; assay: Antibacterial activity against Ruminococcus flavefaciens by CLSI M11-A6 agar dilution method; type: functional
# [12] = test system: Bifidobacterium adolescentis; assay: Antibacterial activity against Bifidobacterium adolescentis by CLSI M11-A6 agar dilution method; type: functional
# [13] = test system: Propionibacterium propionicum; assay: Antibacterial activity against Propionibacterium propionicus by CLSI M11-A6 agar dilution method; type: functional; settings: Arachnia propionica
# [14] = test system: Streptococcus anginosus; assay: Antibacterial activity against Streptococcus anginosus by CLSI M11-A6 agar dilution method; type: functional
# [15] = test system: Peptoniphilus asaccharolyticus; assay: Antibacterial activity against Peptoniphilus asaccharolyticus by CLSI M11-A6 agar dilution method; type: functional
# [16] = test system: Streptococcus constellatus; assay: Antibacterial activity against Streptococcus constellatus by CLSI M11-A6 agar dilution method; type: functional
# [17] = test system: Fusobacterium mortiferum; assay: Antibacterial activity against Fusobacterium mortiferum by CLSI M11-A6 agar dilution method; type: functional
# [18] = test system: Prevotella intermedia; assay: Antibacterial activity against Prevotella P intermedia by CLSI M11-A6 agar dilution method; type: functional
# [19] = test system: Clostridium bartlettii; assay: Antibacterial activity against Clostridium bartlettii by CLSI M11-A6 agar dilution method; type: functional; settings: Intestinibacter bartlettii
# [20] = test system: Bifidobacterium dentium; assay: Antibacterial activity against Bifidobacterium dentium by CLSI M11-A6 agar dilution method; type: functional
# [21] = test system: Prevotella intermedia; assay: Antibacterial activity against Prevotella intermedia by CLSI M11-A6 agar dilution method; type: functional
# [22] = test system: Clostridium spiroforme; assay: Antibacterial activity against Clostridium spiroforme by CLSI M11-A6 agar dilution method; type: functional; settings: Thomasclavelia spiroformis
# [23] = Antibacterial activity against Bifidobacterium infantis by CLSI M11-A6 agar dilution method; type: functional, Bifidobacterium longum subsp. infantis; settings: Bifidobacterium longum
# [24] = test system: Prevotella oris; assay: Antibacterial activity against Prevotella oris by CLSI M11-A6 agar dilution method; type: functional; settings: Segatella oris
# [25] = test system: Bacteroides fragilis; assay: Antibacterial activity against Bacteroides fragilis by CLSI M11-A6 agar dilution method; type: functional
# [26] = test system: Eggerthella lenta; assay: Antibacterial activity against Eggerthella lenta by CLSI M11-A6 agar dilution method; type: functional
# [27] = test system: Prevotella melaninogenica; assay: Antibacterial activity against Prevotella melaninogenica by CLSI M11-A6 agar dilution method; type: functional
# [28] = test system: Finegoldia magna; assay: Antibacterial activity against Finegoldia magna by CLSI M11-A6 agar dilution method; type: functional
# [29] = test system: Clostridium; assay: Antibacterial activity against Clostridium hypermegas by CLSI M11-A6 agar dilution method; type: functional
# [30] = test system: Clostridium disporicum; assay: Antibacterial activity against Clostridium disporicum by CLSI M11-A6 agar dilution method; type: functional
# [31] = test system: [Clostridium] innocuum; assay: Antibacterial activity against Clostridium innocuum by CLSI M11-A6 agar dilution method; type: functional
# [32] = test system: Holdemania filiformis; assay: Antibacterial activity against Holdemania filiformis by CLSI M11-A6 agar dilution method; type: functional
# [33] = test system: Prevotella denticola; assay: Antibacterial activity against Prevotella P denticola by CLSI M11-A6 agar dilution method; type: functional
# [34] = test system: Bifidobacterium longum; assay: Antibacterial activity against Bifidobacterium longum by CLSI M11-A6 agar dilution method; type: functional
# [35] = test system: Hoylesella oralis; assay: Antibacterial activity against Prevotella oralis by CLSI M11-A6 agar dilution method; type: functional
# [36] = test system: Bifidobacterium bifidum; assay: Antibacterial activity against Bifidobacterium bifidum by CLSI M11-A6 agar dilution method; type: functional
# [37] = test system: Clostridium scindens; assay: Antibacterial activity against Clostridium scindens by CLSI M11-A6 agar dilution method; type: functional
# [38] = test system: Bifidobacterium pseudolongum; assay: Antibacterial activity against Bifidobacterium pseudolongum by CLSI M11-A6 agar dilution method; type: functional
# [39] = test system: Enterocloster clostridioformis; assay: Antibacterial activity against Clostridium clostridioforme by CLSI M11-A6 agar dilution method; type: functional
smiles,measurement,setting,value
CCCCCCCCCC(=O)N[C@@H](Cc1c[nH]c2ccccc12)C(=O)N[C@H](CC(N)=O)C(=O)N[C@@H](CC(=O)O)C(=O)N[C@@H]1C(=O)NCC(=O)N[C@@H](CCCN)C(=O)N[C@@H](CC(=O)O)C(=O)N[C@H](C)C(=O)N[C@@H](CC(=O)O)C(=O)NCC(=O)N[C@H](CO)C(=O)N[C@@H]([C@H](C)CC(=O)O)C(=O)N[C@@H](CC(=O)c2ccccc2N)C(=O)O[C@@H]1C,MIC50,[1],1 µg/mL
same,MIC90,[1],8 µg/mL
same,MIC,[2],> 128 µg/mL
same,MIC50,[2],> 128 µg/mL
same,MIC90,[2],> 128 µg/mL
same,MIC50,[3],1 µg/mL
same,MIC90,[3],4 µg/mL
same,MIC50,[4],64 µg/mL
same,MIC90,[4],64 µg/mL
same,MIC50,[5],1 µg/mL
same,MIC90,[5],2 µg/mL
same,MIC50,[6],1 µg/mL
same,MIC90,[6],8 µg/mL
same,MIC,[7],> 128 µg/mL
same,MIC50,[7],> 128 µg/mL
same,MIC90,[7],> 128 µg/mL
same,MIC50,[8],1 µg/mL
same,MIC90,[8],32 µg/mL
same,MIC50,[9],1 µg/mL
same,MIC90,[9],8 µg/mL
same,MIC50,[10],1 µg/mL
same,MIC90,[10],2 µg/mL
same,MIC50,[11],1 µg/mL
same,MIC90,[11],2 µg/mL
same,MIC50,[12],1 µg/mL
same,MIC90,[12],32 µg/mL
same,MIC50,[13],1 µg/mL
same,MIC90,[13],32 µg/mL
same,MIC50,[14],2 µg/mL
same,MIC90,[14],4 µg/mL
same,MIC50,[15],1 µg/mL
same,MIC90,[15],4 µg/mL
same,MIC50,[16],2 µg/mL
same,MIC90,[16],4 µg/mL
same,MIC,[17],> 128 µg/mL
same,MIC50,[17],> 128 µg/mL
same,MIC90,[17],> 128 µg/mL
same,MIC,[18],> 128 µg/mL
same,MIC50,[18],> 128 µg/mL
same,MIC90,[18],> 128 µg/mL
same,MIC50,[19],1 µg/mL
same,MIC90,[19],8 µg/mL
same,MIC50,[20],1 µg/mL
same,MIC90,[20],32 µg/mL
same,MIC,[21],> 128 µg/mL
same,MIC50,[21],> 128 µg/mL
same,MIC90,[21],> 128 µg/mL
same,MIC50,[22],1 µg/mL
same,MIC90,[22],8 µg/mL
same,MIC50,[23],1 µg/mL
same,MIC90,[23],32 µg/mL
same,MIC,[24],> 128 µg/mL
same,MIC50,[24],> 128 µg/mL
same,MIC90,[24],> 128 µg/mL
same,MIC,[25],> 128 µg/mL
same,MIC50,[25],> 128 µg/mL
same,MIC90,[25],> 128 µg/mL
same,MIC50,[26],1 µg/mL
same,MIC90,[26],32 µg/mL
same,MIC,[27],> 128 µg/mL
same,MIC50,[27],> 128 µg/mL
same,MIC90,[27],> 128 µg/mL
same,MIC50,[28],1 µg/mL
same,MIC90,[28],4 µg/mL
same,MIC50,[29],1 µg/mL
same,MIC90,[29],8 µg/mL
same,MIC50,[30],1 µg/mL
same,MIC90,[30],8 µg/mL
same,MIC50,[31],8 µg/mL
same,MIC90,[31],16 µg/mL
same,MIC50,[32],1 µg/mL
same,MIC90,[32],32 µg/mL
same,MIC,[33],> 128 µg/mL
same,MIC50,[33],> 128 µg/mL
same,MIC90,[33],> 128 µg/mL
same,MIC50,[34],1 µg/mL
same,MIC90,[34],32 µg/mL
same,MIC,[35],> 128 µg/mL
same,MIC50,[35],> 128 µg/mL
same,MIC90,[35],> 128 µg/mL
same,MIC50,[36],1 µg/mL
same,MIC90,[36],32 µg/mL
same,MIC50,[37],1 µg/mL
same,MIC90,[37],8 µg/mL
same,MIC50,[38],1 µg/mL
same,MIC90,[38],32 µg/mL
same,MIC50,[39],2 µg/mL
same,MIC90,[39],4 µg/mL
